Data on one substance can be found in patent publication US11857579B2, “Composition for promoting the secretion of FGF21” (MORINAGA MILK INDUSTRY CO., LTD., priority 2018, dated 2024).

Assay [1] deals with FGF21 gene in liver. Kind of assay: Expression of FGF21 gene in liver by RT-PCR after oral administration to neonatal mice. The class given is in vivo, C57BL/6J male mice. The source says: (§1) Bacterial cell powder (2.4×10^11 cfu/g) of Bifidobacterium breve M-16V (NITE BP-02622) triturated with starch was suspended in physiological saline to prepare a Bifidobacterium liquid of 2.5×10^9 cfu/ml.
(§2) Lactulose (manufactured by Morinaga Milk Industry Co., Ltd.), raffinose (product name: Nitten Rraffinose, manufactured by Nippon Beet Sugar Manufacturing Co., Ltd.), and galactooligosaccharide were mixed at a ratio by weight of 1:1:1 and diluted in distilled water to prepare an oligosaccharide stock solution having a total final concentration of 250 mg/ml. The galactooligosaccharide is obtained by removing monosaccharides and disaccharides from a commercial product (product name: Oligomate 55N, manufactured by Yakult Pharmaceutical Industry Co., Ltd.) and contains about 65% by weight of Galβ1-4Galβ1-4Glc (4′-galactosyl lactose) and about 15% by weight of Galβ1-6Galβ1-4Glc (6′-galactosyl lactose). […]
(§3) Each animal was subjected to anatomy at 21 days old and the serum and liver were taken out of the body. The FGF21 concentration in the serum and the expression of FGF21 gene in the liver were determined. The FGF21 concentration in the serum was measured with an ELISA kit (manufactured by R&D Systems). The expression of FGF21 gene in the liver was measured by RT-PCR. […]

In assay [2] the test system is FGF21. Kind of assay: FGF21 concentration in serum by ELISA after oral administration to neonatal mice. The class given is in vivo, C57BL/6J male mice. Conditions: 100 μl once a day during 6 to 20 days old, serum taken at 21 days old.
Text: as §1, §2, §3
(In general: ELISA stands for enzyme-linked immunosorbent assay.)

For the substance “Bifidobacterium breve M-16V (NITE BP-02622) [Group B]”, in assay [1] (at 21 days old, versus group A (vehicle) and group C (oligosaccharide)), the “Expression of FGF21 gene in the liver compared with group A and group C” value is given as “significantly higher”. In assay [1] (neonatal mice, 100 μl once a day during 6 to 20 days old, liver taken at 21 days old, RT-PCR, Group A (vehicle) = 100.0), the “Expression of FGF21 gene in liver (values relative to the value of Group A which was taken as 100.0), Average” value stood at 197.7. For the same substance, the “FGF21 Concentration in serum, Average” value in assay [2] stood at 397.3 pg/mL.
